Usually MIC stands for the lowest concentration that inhibits growth of the organism.

Consider three compounds from ChEMBL document CHEMBL5543142, “Discovery of YFJ-36: Design, Synthesis, and Antibacterial Activities of Catechol-Conjugated β-Lactams against Gram-Negative Bacteria” (J Med Chem, 2024).

The test system of data set [1] is Escherichia coli. As to the kind of experiment: Antibacterial activity against ESBL-producing multidrug-resistant Escherichia coli clinical isolate 14-1 assessed as inhibition of bacterial growth incubated for 18 to 20 hrs by two fold serial dilution assay. To be noted: time 18-20 hrs. Format: functional.
For data set [2], the system named is Escherichia coli. As to the kind of experiment: Antibacterial activity against ESBL-producing multidrug-resistant Escherichia coli clinical isolate 14-2 assessed as inhibition of bacterial growth incubated for 18 to 20 hrs by two fold serial dilution assay. Format: functional. To be noted: time 18-20 hrs.
Data set [3] concerns Escherichia coli. As to the kind of experiment: Antibacterial activity against ESBL-producing multidrug-resistant Escherichia coli clinical isolate 14-4 assessed as inhibition of bacterial growth incubated for 18 to 20 hrs by two fold serial dilution assay. To be noted: time 18-20 hrs. Format: functional.
For data set [4], the system named is Acinetobacter baumannii. As to the kind of experiment: Antibacterial activity against OXA-23 producing multidrug-resistant Acinetobacter baumannii clinical isolate 15-1 assessed as inhibition of bacterial growth incubated for 18 to 20 hrs by two fold serial dilution assay. Format: functional. To be noted: time 18-20 hrs.
The test system of data set [5] is Acinetobacter baumannii. As to the kind of experiment: Antibacterial activity against OXA-23 producing multidrug-resistant Acinetobacter baumannii clinical isolate 15-2 assessed as inhibition of bacterial growth incubated for 18 to 20 hrs by two fold serial dilution assay. Format: functional. To be noted: time 18-20 hrs.
The test system of data set [6] is Acinetobacter baumannii. As to the kind of experiment: Antibacterial activity against OXA-23 producing multidrug-resistant Acinetobacter baumannii clinical isolate 15-3 assessed as inhibition of bacterial growth incubated for 18 to 20 hrs by two fold serial dilution assay. Type of data set: functional. To be noted: time 18-20 hrs.
Data set [7] has as its system Acinetobacter baumannii. As to the kind of experiment: Antibacterial activity against OXA-23 producing multidrug-resistant Acinetobacter baumannii clinical isolate 15-4 assessed as inhibition of bacterial growth incubated for 18 to 20 hrs by two fold serial dilution assay. Format: functional. To be noted: time 18-20 hrs.
The test system of data set [8] is Acinetobacter baumannii. As to the kind of experiment: Antibacterial activity against OXA-23 producing multidrug-resistant Acinetobacter baumannii clinical isolate 15-5 assessed as inhibition of bacterial growth incubated for 18 to 20 hrs by two fold serial dilution assay. Type of data set: functional. To be noted: time 18-20 hrs.
Data set [9] has as its system Klebsiella pneumoniae. As to the kind of experiment: Antibacterial activity against KPC-2 producing multidrug-resistant Klebsiella pneumoniae clinical isolate 15-1 assessed as inhibition of bacterial growth incubated for 18 to 20 hrs by two fold serial dilution assay. Type of data set: functional. To be noted: time 18-20 hrs.
For data set [10], the system named is Klebsiella pneumoniae. As to the kind of experiment: Antibacterial activity against KPC-2 producing multidrug-resistant Klebsiella pneumoniae clinical isolate 15-2 assessed as inhibition of bacterial growth incubated for 18 to 20 hrs by two fold serial dilution assay. Type of data set: functional. To be noted: time 18-20 hrs.
For data set [11], the system named is Klebsiella pneumoniae. As to the kind of experiment: Antibacterial activity against KPC-2 producing multidrug-resistant Klebsiella pneumoniae clinical isolate 15-5 assessed as inhibition of bacterial growth incubated for 18 to 20 hrs by two fold serial dilution assay. To be noted: time 18-20 hrs. Type of data set: functional.
Data set [12] concerns Escherichia coli. As to the kind of experiment: Antibacterial activity against Escherichia coli ATCC35218 assessed as inhibition of bacterial growth incubated for 18 to 20 hrs by two fold serial dilution assay. Format: functional. To be noted: time 18-20 hrs.
Data set [13] relates to Pseudomonas aeruginosa. As to the kind of experiment: Antibacterial activity against IMP-4 producing multidrug-resistant Pseudomonas aeruginosa clinical isolate 17-13 assessed as inhibition of bacterial growth incubated for 18 to 20 hrs by two fold serial dilution assay. Format: functional. To be noted: time 18-20 hrs.
Data set [14] concerns Pseudomonas aeruginosa. As to the kind of experiment: Antibacterial activity against IMP-4 producing multidrug-resistant Pseudomonas aeruginosa clinical isolate 17-1 assessed as inhibition of bacterial growth incubated for 18 to 20 hrs by two fold serial dilution assay. Format: functional. To be noted: time 18-20 hrs.
For data set [15], the system named is Pseudomonas aeruginosa. As to the kind of experiment: Antibacterial activity against IMP-4 producing multidrug-resistant Pseudomonas aeruginosa clinical isolate 19-17 assessed as inhibition of bacterial growth incubated for 18 to 20 hrs by two fold serial dilution assay. Format: functional. To be noted: time 18-20 hrs.
In data set [16] the test system is Klebsiella pneumoniae. As to the kind of experiment: Antibacterial activity against KPC-2 producing multidrug-resistant Klebsiella pneumoniae clinical isolate 15-3 assessed as inhibition of bacterial growth incubated for 18 to 20 hrs by two fold serial dilution assay. Format: functional. To be noted: time 18-20 hrs.
Data set [17] can be described thus: Plasma protein binding in mouse incubated for 35 mins by LC-MS/MS analysis. Type of data set: ADME, cell-free. To be noted: read-out: PPB (converted).
The subject of data set [18] is Acinetobacter baumannii. As to the kind of experiment: Antibacterial activity against OXA-23 producing multidrug-resistant Acinetobacter baumannii clinical isolate 17-2 assessed as inhibition of bacterial growth incubated for 18 to 20 hrs by two fold serial dilution assay. Format: functional. To be noted: time 18-20 hrs.
Data set [19] deals with Acinetobacter baumannii. As to the kind of experiment: Antibacterial activity against OXA-23 producing multidrug-resistant Acinetobacter baumannii clinical isolate 17-3 assessed as inhibition of bacterial growth incubated for 18 to 20 hrs by two fold serial dilution assay. To be noted: time 18-20 hrs. Type of data set: functional.
Data set [20] has as its system Pseudomonas aeruginosa. As to the kind of experiment: Antibacterial activity against IMP-4 producing multidrug-resistant Pseudomonas aeruginosa clinical isolate 19-5 assessed as inhibition of bacterial growth incubated for 18 to 20 hrs by two fold serial dilution assay. Type of data set: functional. To be noted: time 18-20 hrs.
In data set [21] the test system is Pseudomonas aeruginosa. As to the kind of experiment: Antibacterial activity against IMP-4 producing multidrug-resistant Pseudomonas aeruginosa clinical isolate 19-1 assessed as inhibition of bacterial growth incubated for 18 to 20 hrs by two fold serial dilution assay. Format: functional. To be noted: time 18-20 hrs.
The test system of data set [22] is Acinetobacter baumannii. As to the kind of experiment: Antibacterial activity against OXA-23 producing multidrug-resistant Acinetobacter baumannii clinical isolate 17-5 assessed as inhibition of bacterial growth incubated for 18 to 20 hrs by two fold serial dilution assay. Type of data set: functional. To be noted: time 18-20 hrs.
Data set [23] relates to Acinetobacter baumannii. As to the kind of experiment: Antibacterial activity against OXA-23 producing multidrug-resistant Acinetobacter baumannii clinical isolate 17-6 assessed as inhibition of bacterial growth incubated for 18 to 20 hrs by two fold serial dilution assay. Format: functional. To be noted: time 18-20 hrs.
Data set [24] relates to Acinetobacter baumannii. As to the kind of experiment: Antibacterial activity against OXA-23 producing multidrug-resistant Acinetobacter baumannii clinical isolate 17-7 assessed as inhibition of bacterial growth incubated for 18 to 20 hrs by two fold serial dilution assay. Type of data set: functional. To be noted: time 18-20 hrs.
Data set [25] concerns Acinetobacter baumannii. As to the kind of experiment: Antibacterial activity against OXA-23 producing multidrug-resistant Acinetobacter baumannii clinical isolate 17-8 assessed as inhibition of bacterial growth incubated for 18 to 20 hrs by two fold serial dilution assay. Type of data set: functional. To be noted: time 18-20 hrs.

Consider `Nc1nc(/C(=N/OC(C(=O)O)C2CCC(C(F)(F)F)CC2)C(=O)N[C@@H]2C(=O)N3C(C(=O)O)=C(CSCCNC(=O)c4ccc(O)c(O)c4Cl)CS[C@H]23)cs1.O=C(O)C(F)(F)F` (stereo not given in full), for which the MIC in the data set with Escherichia coli [1] came to 0.25 µg/mL; in the data set on Escherichia coli [2], 1 µg/mL; in the data set with Escherichia coli [3] it was 0.25 µg/mL; in the data set with Acinetobacter baumannii [4], 4 µg/mL; in the data set with Acinetobacter baumannii [5] it was 2 µg/mL; in the data set on Acinetobacter baumannii [6], 4 µg/mL. Further, the MIC with Acinetobacter baumannii [7] was determined as 8 µg/mL; in the data set on Acinetobacter baumannii [8], 2 µg/mL; in the data set on Klebsiella pneumoniae [9] it was 1 µg/mL; with Klebsiella pneumoniae [10], 1 µg/mL; in the data set with Klebsiella pneumoniae [11], 1 µg/mL; in the data set with Escherichia coli [12] it was 0.06 µg/mL. In addition, the MIC in the data set with Pseudomonas aeruginosa [13] turned out to be 0.125 µg/mL; with Pseudomonas aeruginosa [14], 1 µg/mL; in the data set with Pseudomonas aeruginosa [15] it was 0.5 µg/mL; with Klebsiella pneumoniae [16], 1 µg/mL. Besides, the fraction unbound at 35 min in data set [17] is 0.04.

Turning to `CC(C)[C@H](O/N=C(\C(=O)N[C@@H]1C(=O)N2C(C(=O)O)=C(CSCCNC(=O)c3ccc(O)c(O)c3Cl)CS[C@H]12)c1csc(N)n1)C(=O)O.O=C(O)C(F)(F)F`, the MIC with Escherichia coli [1] was 0.125 µg/mL; in the data set with Escherichia coli [2], 1 µg/mL; in the data set with Escherichia coli [3], 0.125 µg/mL; with Klebsiella pneumoniae [9] it was 1 µg/mL; with Klebsiella pneumoniae [10], 1 µg/mL; in the data set with Klebsiella pneumoniae [11], 4 µg/mL. Also, the MIC is 0.06 µg/mL in the data set with Escherichia coli [12]; 0.125 µg/mL in the data set on Pseudomonas aeruginosa [13]; 8 µg/mL in the data set on Pseudomonas aeruginosa [14]; 0.25 µg/mL in the data set with Pseudomonas aeruginosa [15]; 4 µg/mL in the data set on Acinetobacter baumannii [18]; 4 µg/mL in the data set on Acinetobacter baumannii [19]. For the same compound, the MIC with Pseudomonas aeruginosa [20] was determined as 0.5 µg/mL; in the data set with Pseudomonas aeruginosa [21] it was 1 µg/mL; in the data set on Acinetobacter baumannii [22] it was 4 µg/mL; in the data set on Acinetobacter baumannii [23], 16 µg/mL; in the data set with Acinetobacter baumannii [24], 8 µg/mL; with Acinetobacter baumannii [25], 4 µg/mL. For the same compound, the MIC in the data set on Klebsiella pneumoniae [16] was 4 µg/mL.

Take `CC(C)[C@@H](O/N=C(\C(=O)N[C@@H]1C(=O)N2C(C(=O)O)=C(CSCCNC(=O)c3ccc(O)c(O)c3Cl)CS[C@H]12)c1csc(N)n1)C(=O)O.O=C(O)C(F)(F)F`: the MIC was 0.125 µg/mL with Escherichia coli [1]; 1 µg/mL with Escherichia coli [2]; 0.125 µg/mL with Escherichia coli [3]; 0.25 µg/mL in the data set on Klebsiella pneumoniae [9]; 0.25 µg/mL in the data set on Klebsiella pneumoniae [10]; 0.25 µg/mL in the data set with Klebsiella pneumoniae [11]. Moreover, the MIC with Escherichia coli [12] amounted to 0.5 µg/mL; with Pseudomonas aeruginosa [13], 0.06 µg/mL; in the data set on Pseudomonas aeruginosa [14], 32 µg/mL; in the data set with Pseudomonas aeruginosa [15], 0.25 µg/mL; in the data set on Acinetobacter baumannii [18], 1 µg/mL; with Acinetobacter baumannii [19], 0.5 µg/mL. Further, the MIC with Pseudomonas aeruginosa [20] was found to be 2 µg/mL; in the data set with Pseudomonas aeruginosa [21] it was 2 µg/mL; in the data set on Acinetobacter baumannii [22] it was 2 µg/mL; in the data set on Acinetobacter baumannii [23] it was 2 µg/mL; in the data set with Acinetobacter baumannii [24] it was 4 µg/mL; in the data set on Acinetobacter baumannii [25], 1 µg/mL. The MIC with Klebsiella pneumoniae [16] is 2 µg/mL.
